Earlier results, collected in patent US12685722B2, “Compositions of matter and pharmaceutical compositions” (Atai Therapeutics, Inc., priority 2020, dated 2026).

## CN(C)CCc1c[nH]c2cccc(O)c12 [psilocin]
  in vivo half-life: about 50 minutes
In vivo
  psychedelic experiences lasting: 4 to 6 h
